These results are taken from PMC3504148, “Enteropeptidase: A Gene Associated with a Starvation Human Phenotype and a Novel Target for Obesity Treatment” (PLoS ONE, 2012).

Series [1] relates to mouse model of diet-induced obesity (DIO). Nature of the series: Long term effect in mice fed with DIO regimen. The series is classed as in vivo, male Swiss mice. On the procedure:
Figure 3 Effect of OBE-2008 administered before night phase on food consumption (left) and body weight (right) in mice. Red = control; dark green = dose of 10 mg/kg/day; light green = dose of 25 mg/kg/day. Number of mice per group n = 10. Statistical comparison between control and treated group were conducted by Dunnett’s tests. Asterisks (*) indicate p values versus control. A p value of<0.05 was considered to show a statistically significant difference.
The anti-obesity effect of OBE lead in a diet induced obesity model (45% kcal from lipids and 20% from proteins, reference 824053 from Special Diet Services, UK) was evaluated following daily oral administration in mice for 63 days. The study involved 3 groups of 10 male Swiss mice; Group 1: water; Group 2: OBE lead at 10 mg/kg/day; Group 3: OBE lead at 25 mg/kg/day. Animal were weighted daily. Food consumption was measured daily for each animal, except during fasted periods. For all groups, the food was given ad libitum. Body weights are given as means ± SEM (Standard Error of the Mean). The effects of test items on body weight and food consumption were expressed as absolute values and compared with those of the vehicle using multiple comparison procedure with a Dunnett’s test in case of significance (P≤0.05).

The test system of series [2] is fasted mice given oral fat overload. In words: Effect on triglycerides absorption in mouse. The series is classed as in vivo. The note with it: for decrease of fatty acids absorption (plasma triglycerides AUC): up to 6 hours, p<0.05. On the procedure:
(§1) Figure 4 The mechanism-based efficacy of OBE-2008 on enteropeptidase was evaluated based on triglycerides (left) and amino acids (right) absorption. Red = control; dark green = dose of 5 mg/kg; light green = dose of 50 mg/kg. Number of mice per group n = 3 (right) for amino acids, and n = 8 (left) for triglycerides. Statistical comparison between control and treated group were conducted by two-sided unpaired Student’s tests. Asterisks (*) indicate p values versus control. A p value of<0.05 was considered to show a statistically significant difference.
The aim of the study was to evaluate the duration of effect of OBE lead on triglycerides absorption in mice after oral administration. The study involved 3 groups of 8 male animals each. Group 1: water; Group 2: OBE lead at 5 mg/kg; Group 3: OBE lead at 50 mg/kg. On the day of the test, all animals were given an oral fat overload. The preparation to be administered (OBE lead or its vehicle) was diluted at 1/100 in 10 mL of clinoleic acid 20. In all animals, about 60 µL were sampled via retro orbital sinus at time points: before dosing, 1, 2, 3, 5 and 6 hours post-dosing. The blood samples were prepared within 30 minutes of sampling by centrifugation for 10 minutes at 1500 g. All plasma samples were dosed for triglycerides. The effects of test items on triglycerides absorption were conducted by two-side unpaired Student’s test. A p value of<0.05 was considered to show a statistically significant difference.

Series [3] concerns fasted mice given radiolabeled proteins. In words: Effect on 14C-protein absorption in mouse. The series is classed as in vivo, male Swiss mice. The note with it: 240 minutes, not statistically significant. On the procedure: as §1
The aim of the study was to evaluate the duration of effect of OBE lead on absorption of ^14C-proteins after oral administration in mice. Fifteen male Swiss mice were divided in 3 groups; Group 1: water and ^14C-proteins; Group 2: OBE lead 5 mg/Kg and ^14C-proteins; Group 3: OBE lead 50 mg/Kg and ^14C-proteins. A preparation containing 5 ml of Clinoleic 20 (Baxter Ref DDB9500) with 1 g of glucose (Sigma; ref:G8270) and 1 g of casein (Sigma; ref: C3400) was prepared. […] About 4 ml Pico-fluor 40 was added and after shaking, the total radioactivity contained within the different samples was determined by liquid scintillation using a Packard 1900 CA spectrometer equipped with an external standard system. […]

A short description of series [4]: Pharmacokinetics in mice, IV and oral. The series is classed as in vivo, male Swiss mice. On the procedure:
Figure 5 Pharmacokinetics of OBE-2008 in mice following intravenous (1 mg/kg, dark blue) and oral (10 mg/kg, light blue) dosing. Number of mice per group n = 3.
This study aimed to determine the fate of OBE lead in mice after intravenous (IV; 1 mg/kg) and oral (PO; 10 mg/kg) administration. Blood was taken from two animals at each sampling time from T = 0 to T = 6 h after IV administration, and from T = 0 to T = 24 h after oral administration. Samples were analyzed for OBE lead using LC/MS/MS methodology. For each IV and PO routes, three male Swiss mice aged 10-weeks were included in the experiment. The animals OBE IV-1, OBE IV-2 and OBE IV-3 were treated at T = 0 with 1 mg/kg of OBE lead using 2 mL/kg. The injection was performed in the jugular vein under isoflurane anaesthesia. The animals OBE PO-1, OBE PO-2 and OBE PO-3 were treated at T = 0 with 10 mg/kg of OBE lead using 5 mL/kg. The solution to be administered was delivered by gavage, using a gastric cannula. About 50–75 µL of blood were sampled from the retro orbital sinus. The blood was immediately centrifuged at 3500 rpm (+4°C) for 5 minutes. Protein precipitation was conducted by adding a volume of 400 µL of acetonitrile to 10 µL of plasma in Teflon vials. After centrifugation, an aliquot of the supernatant (+4°C auto-sampler; injected volume = 10 µL) was immediately analyzed by LC/MS/MS (column: HILIC Silica 5 µM 2.1×150 mm; isocratic elution using an ACN/pH3 buffer (70/30, V/V) eluant containing 1% formic acid; flow rate = 0.25 mL/min. The MS system operated in the ESI mode, and the ionization source was heated at 350°C). Chromatographic peaks areas were than calculated and plotted against time.

The structures appear in SMILES notation.

Regarding `CC(=O)N[C@@H](C)C(=O)N[C@@H](Cc1ccccc1)C(=O)N[C@@H](CCCCN)B1O[C@@H]2C[C@@H]3C[C@@H](C3(C)C)[C@]2(C)O1` [OBE-2008], the “side effects such as steatorrhea or diarrhea” value in series [1] (long-term oral treatment) is “no side effects”. The “reduction of weight gain relative to control group” value turned out to be 6% in series [1] (oral 10 mg/kg daily, up to 9 weeks) and 10% in series [1] (oral 25 mg/kg daily, up to 9 weeks). In series [1] (oral daily 10 and 25 mg/kg, up to 9 weeks, food ad libitum), the “effect on food consumption” value is listed as “no effect”. The “maximum level of triglycerides in plasma after 1 hour vs control” value in series [2] (5 mg/kg and 50 mg/kg oral) is on record as “substantially lower than in the control group”. The “decrease of fatty acids absorption (plasma triglycerides AUC)” value is recorded as 33% in series [2] (5 mg/kg oral) and 32% in series [2] (50 mg/kg oral). In addition, the “decrease of total protein absorption (AUC)” value in series [3] (5 mg/kg oral) turned out to be 17%; in series [3] (50 mg/kg oral), 22%. In addition, the detectability in plasma entry in series [4] (intravenous 1 mg/kg) is listed as “undetectable after 2 hours”. In series [4] (intravenous 1 mg/kg), the plasma half-life result is “minutes”. Also, the calculated bioavailability in series [4] (oral 10 mg/kg vs intravenous 1 mg/kg) was 2–3%.
